From ChEMBL document CHEMBL4680187, “Optimization of EphA2 antagonists based on a lithocholic acid core led to the identification of UniPR505, a new 3α-carbamoyloxy derivative with antiangiogenetic properties” (Eur J Med Chem, 2020)

Legend:
Ephrin type-B receptor 1 = target: T1, Ephrin type-B receptor 1 (Rattus norvegicus, UniProt P09759); assay: Displacement of biotinylated ephrin-B1-Fc from rat EphB1 Fc preincubated for 1 hr followed by ephrin-B1-FC addition and measured after 4 hrs by ELISA
T1 sequence (P09759 whole entry): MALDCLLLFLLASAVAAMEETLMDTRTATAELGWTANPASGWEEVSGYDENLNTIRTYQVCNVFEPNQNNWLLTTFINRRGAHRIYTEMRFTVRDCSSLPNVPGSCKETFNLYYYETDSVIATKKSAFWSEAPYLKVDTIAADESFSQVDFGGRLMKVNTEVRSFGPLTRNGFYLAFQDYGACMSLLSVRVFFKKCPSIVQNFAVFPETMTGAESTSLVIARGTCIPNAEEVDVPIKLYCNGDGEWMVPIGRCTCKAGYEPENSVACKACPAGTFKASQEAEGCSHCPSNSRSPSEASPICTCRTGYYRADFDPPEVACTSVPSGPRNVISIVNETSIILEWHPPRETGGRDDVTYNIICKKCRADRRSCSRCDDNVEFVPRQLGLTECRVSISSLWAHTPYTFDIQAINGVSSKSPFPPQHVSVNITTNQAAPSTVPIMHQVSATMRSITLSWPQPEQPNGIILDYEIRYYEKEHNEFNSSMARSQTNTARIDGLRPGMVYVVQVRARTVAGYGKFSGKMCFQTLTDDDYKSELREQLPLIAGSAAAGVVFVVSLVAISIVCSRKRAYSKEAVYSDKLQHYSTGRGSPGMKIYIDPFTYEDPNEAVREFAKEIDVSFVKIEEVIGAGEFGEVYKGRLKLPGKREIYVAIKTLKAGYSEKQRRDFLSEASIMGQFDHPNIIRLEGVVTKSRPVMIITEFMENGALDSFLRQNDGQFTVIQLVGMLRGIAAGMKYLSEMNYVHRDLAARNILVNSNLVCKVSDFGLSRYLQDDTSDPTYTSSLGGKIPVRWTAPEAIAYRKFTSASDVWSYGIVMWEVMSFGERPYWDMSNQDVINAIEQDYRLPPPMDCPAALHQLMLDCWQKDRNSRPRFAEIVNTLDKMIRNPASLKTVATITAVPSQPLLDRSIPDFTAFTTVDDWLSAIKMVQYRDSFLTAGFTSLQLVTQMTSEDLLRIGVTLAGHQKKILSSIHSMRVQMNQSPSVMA

Ephrin type-A receptor 3 = target: T2, Ephrin type-A receptor 3 (Mus musculus, UniProt P29319); assay: Displacement of biotinylated ephrin-A1-Fc from mouse EphA3 Fc preincubated for 1 hr followed by ephrin-A1-FC addition and measured after 4 hrs by ELISA
T2 sequence (P29319 whole entry): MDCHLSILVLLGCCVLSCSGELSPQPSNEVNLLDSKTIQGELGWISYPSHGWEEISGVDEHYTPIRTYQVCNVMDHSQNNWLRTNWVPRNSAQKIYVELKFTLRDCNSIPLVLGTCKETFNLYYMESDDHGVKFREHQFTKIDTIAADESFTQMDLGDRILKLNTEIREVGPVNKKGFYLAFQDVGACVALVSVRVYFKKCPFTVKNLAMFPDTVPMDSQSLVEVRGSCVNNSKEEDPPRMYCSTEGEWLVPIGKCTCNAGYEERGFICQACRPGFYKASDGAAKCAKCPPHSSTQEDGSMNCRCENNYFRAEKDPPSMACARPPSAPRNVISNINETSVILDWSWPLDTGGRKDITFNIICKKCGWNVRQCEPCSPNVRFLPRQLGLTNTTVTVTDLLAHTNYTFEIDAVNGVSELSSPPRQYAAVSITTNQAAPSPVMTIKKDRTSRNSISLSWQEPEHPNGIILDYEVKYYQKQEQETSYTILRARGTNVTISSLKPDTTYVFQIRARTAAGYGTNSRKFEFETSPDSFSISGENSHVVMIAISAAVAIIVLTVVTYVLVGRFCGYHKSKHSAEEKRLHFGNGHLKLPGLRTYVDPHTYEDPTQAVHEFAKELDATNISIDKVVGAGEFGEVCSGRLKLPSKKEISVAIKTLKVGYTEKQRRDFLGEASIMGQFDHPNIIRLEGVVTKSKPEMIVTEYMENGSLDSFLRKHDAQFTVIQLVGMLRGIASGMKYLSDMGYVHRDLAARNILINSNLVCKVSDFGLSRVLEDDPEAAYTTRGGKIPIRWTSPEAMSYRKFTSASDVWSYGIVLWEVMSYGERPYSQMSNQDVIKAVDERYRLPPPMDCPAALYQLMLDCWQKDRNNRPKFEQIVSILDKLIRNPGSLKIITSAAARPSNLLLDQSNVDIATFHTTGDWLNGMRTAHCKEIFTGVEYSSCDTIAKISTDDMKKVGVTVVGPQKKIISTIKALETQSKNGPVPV

CCNC(=O)O[C@@H]1CC[C@@]2(C)[C@H](CC[C@@H]3[C@@H]2CC[C@]2(C)[C@@H]([C@H](C)CCC(=O)N[C@H](CC(=O)O)Cc4c[nH]c5ccccc45)CC[C@@H]32)C1
IC50 (Ephrin type-B receptor 1): > 30 µM
IC50 (Ephrin type-A receptor 3): 4.5 µM
